Assay results published in patent US20060018970A1, “Enoximone formulations and their use in the treatment of cardiac hypertrophy and heart failure” (Myogen, Inc., priority 2003, published 2006).
Read-outs that look alike come from different tables or passages of the source.

Key:
clinical [1] = settings: human, plasma
[2] = system: patients with the most advanced stage of chronic heart failure dependent on intravenous inotrope therapy; settings: cited from earlier work
[3] = system: type-III phosphodiesterase (PDE-III); settings: cited from earlier work
clinical [4] = settings: human, in vivo, plasma concentration
[5] = Solubility in the physiological pH range; assay type: physicochemical; settings: data unpublished

CSc1ccc(C(=O)c2[nH]c(=O)[nH]c2C)cc1 [enoximone, 1,3-Dihydro-4-methyl-5-[4-(methylthio)benzoyl]-2H-imidazol-2-one]
concentration at 0.5 h (clinical [1]; 25 mg, Patient 4, dose 25 mg): 23.7 ng/mL
concentration at 2 h (clinical [1]; 25 mg, Patient 4, dose 25 mg, 2 HR): 63.6 ng/mL
concentration at 0 h (clinical [1]; 25 mg, Patient 4, dose 25 mg, PREDOSE): 18.6 ng/mL
concentration at 2 h (clinical [1]; 50 mg, Max, 2 hrs, after dosing of enoximone, 5 patients, raw data): 383 ng/mL
concentration at 0.5 h (clinical [1]; 50 mg, Patient 1, dose 50 mg): 118 ng/mL
concentration at 1 h (clinical [1]; 50 mg, Patient 1, dose 50 mg): 424 ng/mL
concentration at 2 h (clinical [1]; 50 mg, Patient 1, dose 50 mg, 2 HR): 383 ng/mL
concentration at 4 h (clinical [1]; 50 mg, Patient 1, dose 50 mg, 4 HR): 209 ng/mL
concentration at 6 h (clinical [1]; 50 mg, Patient 1, dose 50 mg): 112 ng/mL
concentration at 0.5 h (clinical [1]; 50 mg, Patient 2, dose 50 mg): 52.8 ng/mL
concentration at 1 h (clinical [1]; 50 mg, Patient 2, dose 50 mg): 49.8 ng/mL
concentration at 2 h (clinical [1]; 50 mg, Patient 2, dose 50 mg, 2 HR): 127 ng/mL
concentration at 4 h (clinical [1]; 50 mg, Patient 2, dose 50 mg, 4 HR): 237 ng/mL
concentration at 6 h (clinical [1]; 50 mg, Patient 2, dose 50 mg): 122 ng/mL
concentration at 0 h (clinical [1]; 50 mg, Patient 2, dose 50 mg, PREDOSE): 66.7 ng/mL
concentration at 0.5 h (clinical [1]; 50 mg, Patient 3, dose 50 mg): 92.4 ng/mL
concentration at 1 h (clinical [1]; 50 mg, Patient 3, dose 50 mg): 118 ng/mL
concentration at 2 h (clinical [1]; 50 mg, Patient 3, dose 50 mg, 2 HR): 110 ng/mL
concentration at 4 h (clinical [1]; 50 mg, Patient 3, dose 50 mg, 4 HR): 78.2 ng/mL
concentration at 6 h (clinical [1]; 50 mg, Patient 3, dose 50 mg): 71.7 ng/mL
concentration at 0 h (clinical [1]; 50 mg, Patient 3, dose 50 mg, PREDOSE): 34.4 ng/mL
concentration at 0.5 h (clinical [1]; 50 mg, Patient 5, dose 50 mg): 137 ng/mL
concentration at 1 h (clinical [1]; 50 mg, Patient 5, dose 50 mg): 355 ng/mL
concentration at 2 h (clinical [1]; 50 mg, Patient 5, dose 50 mg, 2 HR): 369 ng/mL
concentration at 4 h (clinical [1]; 50 mg, Patient 5, dose 50 mg, 4 HR): 268 ng/mL
concentration at 6 h (clinical [1]; 50 mg, Patient 5, dose 50 mg): 166 ng/mL
concentration at 0 h (clinical [1]; 50 mg, Patient 5, dose 50 mg, PREDOSE): 149 ng/mL
concentration at 0 h (clinical [1]; Max, 0 hr, after dosing of enoximone, 5 patients, raw data): 149 ng/mL
concentration at 4 h (clinical [1]; Max, 4 hrs, after dosing of enoximone, 5 patients, raw data): 268 ng/mL
concentration at 8 h (clinical [1]; Max, after dosing of enoximone, 5 patients, raw data): 166 ng/mL
concentration at 0 h (clinical [1]; Min, 0 hr, after dosing of enoximone, 5 patients, raw data): 7.95 ng/mL
concentration at 2 h (clinical [1]; Min, 2 hrs, after dosing of enoximone, 5 patients, raw data): 63.6 ng/mL
concentration at 4 h (clinical [1]; Min, 4 hrs, after dosing of enoximone, 5 patients, raw data): 44 ng/mL
concentration at 8 h (clinical [1]; Min, after dosing of enoximone, 5 patients, raw data): 20.7 ng/mL
time to death or re-initiation of i.v. inotrope therapy ([2]; 60-day (p=0.012), 75-day (p=0.016) and 90-day (p=0.041) periods): benefit in favor of enoximone versus placebo
time to death or re-initiation of i.v. inotrope therapy ([2]; 182-day period (p=0.188)): not
mean total days on i.v. inotrope therapy over the course of the study ([2]; placebo 49 days, p=0.049): 28 days
plasma concentration (Patient 1, dose 50 mg, PREDOSE): 69.7 ng/mL
plasma concentration (Patient 4, dose 25 mg, HR ALIQUOT 1 (between 0.5 HR and 2 HR)): 65.8 ng/mL
inhibition of type-III phosphodiesterase [3]: highly selective inhibition
concentration at 0 h (clinical [4]; Max): 150 ng/mL
concentration at 2 h (clinical [4]; Max): 400 ng/mL
concentration at 4 h (clinical [4]; Max): 200 ng/mL
concentration at 8 h (clinical [4]; Max): 150 ng/mL
concentration at 0 h (clinical [4]; Min): 0 ng/mL
concentration at 2 h (clinical [4]; Min): 20 ng/mL
concentration at 4 h (clinical [4]; Min): 15 ng/mL
concentration at 8 h (clinical [4]; Min): 0 ng/mL
solubility [5]: Limited solubility
